The values that follow come from patent US9376429B2, “Sodium channel blockers, preparation method thereof and use thereof” (Daewoong Pharmaceutical Co., Ltd., priority 2012, dated 2016).

SMILES strings stand for the structures.

For the assay, the target named is T1, sodium ion channel (Nav1.7) (Homo sapiens, UniProt Q15858).
T1 construct: host or cells: HEK293
As to the kind of experiment: Blocking effect against sodium ion channel (Nav1.7), IonFlux16 auto patch clamp, hNav1.7 HEK293 cells. Format: cell-based. The conditions noted are these: peak current after 50 seconds treatment, eight concentrations. On the procedure: In order to measure the activities of the inventive compounds as antagonists, an experiment on a blocking effect against the sodium ion channel (Nav1.7) was carried out as follows.
The hNav1.7 HEK293 cell line used was a cell line having a human sodium ion channel 1.7 gene (type IX voltage-gated sodium channel alpha subunit) in human embryonic kidney (HEK) 293 cells and was purchased from Millipore. The medium used was prepared by adding 1% 100×NEAA and 10% heat inactivated FBS to DMEM F-12 and adding 1% P/S as an antibiotic thereto. G-418 as a […] was added during subculture, and the hNav1.7 HEK293 cells were cultured to a confluence of about 80% in a T75 flask in a 5% CO2 incubator at 37° C. for 2 or 3 days and detached from the flask by treatment with 0.25% trypsin solution. Then, the cells were collected by centrifugation and used in the experiment.
The compounds prepared in the Examples of the present invention were dissolved in dimethyl sulfoxide (DMSO) and used in the experiment. 90 mM and 10 mM DMSO stock solutions were prepared from each of the compounds and diluted in an extracellular solution (4 mM KCl, 138 mM NaCl, 1 mM MgCl2, 1.8 mM CaCl2, 5.6 mM glucose, 10 mM HEPES, pH 7.45) at various concentrations so that the final concentration of each compound in DMSO was 0.3% or less.
To measure the sodium ion channel blocking effect, an IonFlux16 Auto patch clamp system (Fluxion, Inc.) and a plate for exclusive use were used. The cells were distributed in an extracellular solution (4 mM KCl, 138 mM NaCl, 1 mM MgCl2, 1.8 mM CaCl2, 5.6 mM glucose, 10 mM HEPES, pH 7.45), and then dispensed in the specified region of the plate, and each of the prepared compound samples was diluted at various concentrations, and then dispensed in the specified region of the plate.
Specifically, eight concentrations per compound were set, and percent inhibition was determined by calculating the percentage of inhibition of the peak current, generated after treating the cells with each concentration of the compound for 50 seconds, relative to the peak current generated before treatment with the compound, and the IC50 value was calculated using the Sigma plot program. In Table 2 below, the percent inhibition of Nav1.7 is rated as follows: […]

T1 sequence (Q15858 whole entry): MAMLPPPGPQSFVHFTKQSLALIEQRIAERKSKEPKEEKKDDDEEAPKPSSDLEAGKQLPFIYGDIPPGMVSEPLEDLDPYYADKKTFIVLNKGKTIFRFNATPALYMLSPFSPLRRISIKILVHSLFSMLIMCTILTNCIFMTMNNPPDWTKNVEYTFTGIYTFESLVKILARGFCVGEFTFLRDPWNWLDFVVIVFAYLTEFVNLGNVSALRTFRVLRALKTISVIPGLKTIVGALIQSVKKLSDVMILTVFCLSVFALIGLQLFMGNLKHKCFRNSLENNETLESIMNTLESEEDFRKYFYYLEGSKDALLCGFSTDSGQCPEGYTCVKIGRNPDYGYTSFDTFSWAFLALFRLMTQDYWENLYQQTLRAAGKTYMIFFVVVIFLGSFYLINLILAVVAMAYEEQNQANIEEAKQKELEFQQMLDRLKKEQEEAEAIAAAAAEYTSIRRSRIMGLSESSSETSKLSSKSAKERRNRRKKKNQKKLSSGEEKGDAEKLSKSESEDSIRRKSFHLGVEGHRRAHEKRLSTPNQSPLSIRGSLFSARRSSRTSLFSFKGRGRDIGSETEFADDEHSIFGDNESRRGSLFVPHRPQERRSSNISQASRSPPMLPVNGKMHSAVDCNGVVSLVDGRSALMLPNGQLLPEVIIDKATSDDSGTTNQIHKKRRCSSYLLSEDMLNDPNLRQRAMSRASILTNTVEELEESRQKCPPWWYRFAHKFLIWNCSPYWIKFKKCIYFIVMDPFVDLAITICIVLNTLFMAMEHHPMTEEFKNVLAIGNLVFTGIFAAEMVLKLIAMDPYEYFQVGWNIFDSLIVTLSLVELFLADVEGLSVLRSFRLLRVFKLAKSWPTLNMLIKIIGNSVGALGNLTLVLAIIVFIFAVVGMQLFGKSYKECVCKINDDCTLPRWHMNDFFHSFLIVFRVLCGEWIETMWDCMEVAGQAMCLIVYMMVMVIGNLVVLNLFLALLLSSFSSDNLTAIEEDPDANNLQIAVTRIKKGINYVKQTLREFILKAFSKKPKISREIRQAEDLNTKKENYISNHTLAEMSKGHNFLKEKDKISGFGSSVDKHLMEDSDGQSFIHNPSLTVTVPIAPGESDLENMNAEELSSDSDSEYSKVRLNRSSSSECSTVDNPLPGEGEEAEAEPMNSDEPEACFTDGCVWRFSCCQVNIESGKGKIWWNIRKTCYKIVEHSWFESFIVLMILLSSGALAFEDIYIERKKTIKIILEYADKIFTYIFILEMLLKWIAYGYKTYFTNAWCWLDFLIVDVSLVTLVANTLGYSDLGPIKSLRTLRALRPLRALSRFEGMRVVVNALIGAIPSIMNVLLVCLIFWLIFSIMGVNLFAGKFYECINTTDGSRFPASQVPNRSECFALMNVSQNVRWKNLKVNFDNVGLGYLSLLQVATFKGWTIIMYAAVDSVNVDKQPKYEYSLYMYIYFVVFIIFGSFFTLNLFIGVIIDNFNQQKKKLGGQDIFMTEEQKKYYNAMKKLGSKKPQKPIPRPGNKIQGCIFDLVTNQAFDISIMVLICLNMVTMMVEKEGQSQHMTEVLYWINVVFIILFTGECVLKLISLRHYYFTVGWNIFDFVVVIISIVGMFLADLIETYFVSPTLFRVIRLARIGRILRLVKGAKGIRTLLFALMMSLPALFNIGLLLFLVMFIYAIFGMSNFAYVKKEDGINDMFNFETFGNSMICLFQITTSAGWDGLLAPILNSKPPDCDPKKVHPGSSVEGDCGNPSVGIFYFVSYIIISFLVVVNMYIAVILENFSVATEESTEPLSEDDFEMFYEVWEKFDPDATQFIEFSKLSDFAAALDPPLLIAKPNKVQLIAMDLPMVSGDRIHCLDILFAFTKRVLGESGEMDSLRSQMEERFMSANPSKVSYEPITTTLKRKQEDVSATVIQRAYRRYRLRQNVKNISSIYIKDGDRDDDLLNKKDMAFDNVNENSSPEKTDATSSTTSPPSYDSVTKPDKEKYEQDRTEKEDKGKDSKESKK

In turn, `O=S(=O)(Nc1cscn1)c1cc(Cl)c(Oc2cnc(-c3cccc(F)c3)cc2-c2ccoc2)cc1F` [Example 59, 5-chloro-2-fluoro-4-((6-(3-fluorophenyl)-4-(furan-3-yl)pyridin-3-yl)oxy)-N-(thiazol-4-yl)benzenesulfonamide] registered a half-inhibitory concentration (IC50) above 100 nM.

With `O=S(=O)(Nc1cscn1)c1cc(Cl)c(Oc2cnc(-c3ccccc3F)cc2-c2ccoc2)cc1F` [Example 60, 5-chloro-2-fluoro-4-((6-(2-fluorophenyl)-4-(furan-3-yl)pyridin-3-yl)oxy)-N-(thiazol-4-yl)benzenesulfonamide], the half-inhibitory concentration (IC50) is above 100 nM.

`O=S(=O)(Nc1cscn1)c1cc(Cl)c(Oc2cnc(-c3ccc(F)cc3)cc2-c2ccoc2)cc1F` [Example 61, 5-chloro-2-fluoro-4-((6-(4-fluorophenyl)-4-(furan-3-yl)pyridin-3-yl)oxy)-N-(thiazol-4-yl)benzenesulfonamide] showed an IC50 above 100 nM. Consider `O=S(=O)(Nc1cscn1)c1cc(Cl)c(Oc2cnc(-c3ccnc(F)c3)cc2-c2ccoc2)cc1F` [Example 62, 5-chloro-2-fluoro-4-((2′-fluoro-4-(furan-3-yl)-[2,4′-bipyridin]-5-yl)oxy)-N-(thiazol-4-yl)benzenesulfonamide], for which the concentration for half-maximal inhibition (IC50) is above 100 nM.

As for `Cn1cc(-c2cc(-c3ccccc3F)ncc2Oc2cc(F)c(S(=O)(=O)Nc3cscn3)cc2Cl)cn1` [Example 63, 5-chloro-2-fluoro-4-((6-(2-fluorophenyl)-4-(1-methyl-1H-pyrazol-4-yl)pyridin-3-yl)oxy)-N-(thiazol-4-yl)benzenesulfonamide 2,2,2-trifluoroacetate], the half-maximal inhibitory concentration (IC50) is above 100 nM. As for `Cn1cc(-c2cc(-c3ccc(F)cc3)ncc2Oc2cc(F)c(S(=O)(=O)Nc3cscn3)cc2Cl)cn1` [Example 65, 5-chloro-2-fluoro-4-((6-(4-fluorophenyl)-4-(1-methyl-1H-pyrazol-4-yl)pyridin-3-yl)oxy)-N-(thiazol-4-yl)benzenesulfonamide 2,2,2-trifluoroacetate], the IC50 is above 100 nM. For `Cn1cc(-c2cc(-c3ccc(F)cc3F)ncc2Oc2cc(F)c(S(=O)(=O)Nc3cscn3)cc2Cl)cn1` [Example 66, 5-chloro-4-((6-(2,4-difluorophenyl)-4-(1-methyl-1H-pyrazol-4-yl)pyridin-3-yl)oxy)-2-fluoro-N-(thiazol-4-yl)benzenesulfonamide 2,2,2-trifluoroacetate], the half-inhibitory concentration (IC50) was above 100 nM.

Regarding `Cn1cc(-c2cc(-c3ccc(F)c(F)c3)ncc2Oc2cc(F)c(S(=O)(=O)Nc3cscn3)cc2Cl)cn1` [Example 67, 5-chloro-4-((6-(3,4-difluorophenyl)-4-(1-methyl-1H-pyrazol-4-yl)pyridin-3-yl)oxy)-2-fluoro-N-(thiazol-4-yl)benzenesulfonamide 2,2,2-trifluoroacetate], the half-maximal inhibitory concentration (IC50) was above 100 nM. For the molecule `Cn1cc(-c2cc(-c3ccnc(F)c3)ncc2Oc2cc(F)c(S(=O)(=O)Nc3cscn3)cc2Cl)cn1` [Example 68, 5-chloro-2-fluoro-4-((2′-fluoro-4-(1-methyl-1H-pyrazol-4-yl)-[2,4′-bipyridin]-5-yl)oxy)-N-(thiazol-4-yl)benzenesulfonamide 2,2,2-trifluoroacetate], the IC50 was above 100 nM. Under `Cn1cc(-c2cc(-c3cccnc3F)ncc2Oc2cc(F)c(S(=O)(=O)Nc3cscn3)cc2Cl)cn1` [Example 69, 5-chloro-2-fluoro-4-((2′-fluoro-4-(1-methyl-1H-pyrazol-4-yl)-[2,3′-bipyridin]-5-yl)oxy)-N-(thiazol-4-yl)benzenesulfonamide 2,2,2-trifluoroacetate] stands above 100 nM; under `Cn1cc(-c2cc(-c3ccc(F)nc3)ncc2Oc2cc(F)c(S(=O)(=O)Nc3cscn3)cc2Cl)cn1` [Example 70, 5-chloro-2-fluoro-4-((6′-fluoro-4-(1-methyl-1H-pyrazol-4-yl)-[2,3′-bipyridin]-5-yl)oxy)-N-(thiazol-4-yl)benzenesulfonamide 2,2,2-trifluoroacetate], above 100 nM; under `Cn1nccc1-c1cc(-c2cccc(F)c2)ncc1Oc1cc(F)c(S(=O)(=O)Nc2cscn2)cc1Cl` [Example 71, 5-chloro-2-fluoro-4-((6-(3-fluorophenyl)-4-(1-methyl-1H-pyrazol-5-yl)pyridin-3-yl)oxy)-N-(thiazol-4-yl)benzenesulfonamide], above 100 nM.

On to `O=S(=O)(Nc1cscn1)c1cc(Cl)c(Oc2cnc(-c3cccc(F)c3)cc2-c2ccnc(N3CCNCC3)n2)cc1F` [Example 72, 5-chloro-2-fluoro-4-((6-(3-fluorophenyl)-4-(2-(piperazin-1-yl)pyrimidin-4-yl)pyridin-3-yl)oxy)-N-(thiazol-4-yl)benzenesulfonamide], for which the half-inhibitory concentration (IC50) was above 100 nM.

`O=S(=O)(Nc1nccs1)c1cc(Cl)c(Oc2cnc(-c3cccc(F)c3)cc2-c2cccnc2)cc1F` [Example 73, 5-chloro-2-fluoro-4-((6′-(3-fluorophenyl)-[3,4′-bipyridin]-3′-yl)oxy)-N-(thiazol-2-yl)benzenesulfonamide] registered a concentration for half-maximal inhibition (IC50) above 100 nM. To `O=S(=O)(Nc1cscn1)c1cc(Cl)c(Oc2cnc(-c3cccc(F)c3)cc2-c2cccnc2)cc1F` [Example 74, 5-chloro-2-fluoro-4-((6′-(3-fluorophenyl)-[3,4′-bipyridin]-3′-yl)oxy)-N-(thiazol-4-yl)benzenesulfonamide] belongs above 100 nM. Under `O=S(=O)(Nc1cscn1)c1cc(Cl)c(Oc2cnc(-c3ccnc(F)c3)cc2-c2cccnc2)cc1F` [Example 75, 5-chloro-2-fluoro-4-((2″-fluoro-[3,4′:2′,4″-terpyridin]-5′-yl)oxy)-N-(thiazol-4-yl)benzenesulfonamide] stands above 100 nM; under `O=S(=O)(Nc1cscn1)c1cc(Cl)c(Oc2cnc(-c3cccc(F)c3)cc2-c2cncnc2)cc1F` [Example 76, 5-chloro-2-fluoro-4-((6-(3-fluorophenyl)-4-(pyrimidin-5-yl)pyridin-3-yl)oxy)-N-(thiazol-4-yl)benzenesulfonamide], above 100 nM; under `O=S(=O)(Nc1cscn1)c1cc(Cl)c(Oc2cnc(-c3ccnc(F)c3)cc2-c2cncnc2)cc1F` [Example 77, 5-chloro-2-fluoro-4-((2′-fluoro-4-(pyrimidin-5-yl)-[2,4′-bipyridin]-5-yl)oxy)-N-(thiazol-4-yl)benzenesulfonamide], above 100 nM. Molecule `O=S(=O)(Nc1cscn1)c1cc(Cl)c(Oc2cnc(-c3cccc(F)c3)cc2-c2cn[nH]c2)cc1F` [Example 78, 5-chloro-2-fluoro-4-((6-(3-fluorophenyl)-4-(1H-pyrazol-4-yl)pyridin-3-yl)oxy)-N-(thiazol-4-yl)benzenesulfonamide] returned a half-maximal inhibitory concentration (IC50) above 100 nM. `O=S(=O)(Nc1cscn1)c1cc(Cl)c(Oc2cnc(-c3cccc(F)c3)cc2-c2ccnc(F)c2)cc1F` [Example 79, 5-chloro-2-fluoro-4-((2′-fluoro-6-(3-fluorophenyl)-[4,4′-bipyridin]-3-yl)oxy)-N-(thiazol-4-yl)benzenesulfonamide] came in with an IC50 above 100 nM.

With `O=S(=O)(Nc1cscn1)c1cc(Cl)c(Oc2cnc(-c3ccc(F)c(F)c3)cc2-c2ccnc(F)c2)cc1F` [Example 80, 5-chloro-4-((6-(3,4-difluorophenyl)-2′-fluoro-[4,4′-bipyridin]-3-yl)oxy)-2-fluoro-N-(thiazol-4-yl)benzenesulfonamide], the IC50 is above 100 nM.
